Measurements taken from patent publication US20120177797A1, “TASTE ENHANCING AGENT” (J-OIL MILLS, INC., priority 2009, published 2012).

Key:
Assay type in all cases: in vivo
[1] = Sensory evaluation, intensity of umami in aqueous MSG solution; conditions: additive-free = 3.0
Protocol: (§1) All sensory evaluation of taste was performed by individuals wearing a nose clip. The evaluation was performed by groups of three individuals, and the scores were averaged.
(§2) To a 0.2% aqueous sodium glutamate (MSG) solution (=umami), a 0.8% aqueous salt (NaCl) solution (=saltiness) and a 2% aqueous sucrose solution (=sweetness) were added 10 ppm linear aliphatic aldehydes having 3-12 carbon atoms shown in Table 1, respectively. Sensory evaluation was performed in which intensity of taste sensed when each of the aqueous solutions is introduced into the mouth is defined as “Intensity of umami” for the aqueous MSG solution, “Intensity of saltiness” for the aqueous NaCl solution and “Intensity of sweetness” for the aqueous sucrose solution. The score of aldehyde-free taste intensity was set to 3.0, and taste intensity upon addition of aldehyde was evaluated as follows. The results are shown in Table 1. • 1.0: Much weaker • 2.0: Weaker • 3.0: Similar • 4.0: Stronger • 5.0: Much Stronger
(§3) To a 0.2% aqueous sodium glutamate (MSG) solution (=umami), a 0.8% aqueous salt (NaCl) solution (=saltiness), a 2% aqueous sucrose solution (=sweetness) were added 10 ppm linear aliphatic alcohols having 2-11 carbon atoms, respectively. Sensory evaluation was performed in which intensity of taste sensed when each of the aqueous solutions is introduced into the mouth is defined as “Intensity of umami” for the aqueous MSG solution, “Intensity of saltiness” for the aqueous NaCl solution and “Intensity of sweetness” for the aqueous sucrose solution. The score of alcohol-free taste intensity was set to 3.0, and taste intensity upon addition was evaluated as follows. The results are shown in Table 3. • 1.0: Much weaker • 2.0: Weaker • 3.0: Similar • 4.0: Stronger • 5.0: Much stronger
(§4) To a 0.2% aqueous sodium glutamate (MSG) solution (=umami), a 0.8% aqueous salt (NaCl) solution (=saltiness), a 2% aqueous sucrose solution (=sweetness) were added 1 ppm n-hexanal and 1ppm 1-octene-3-ol each, respectively. Sensory evaluation was performed in which the intensity of taste sensed when each of the aqueous solutions is introduced into the mouth is defined as “Intensity of umami” for the aqueous MSG solution, “Intensity of saltiness” for the aqueous NaCl solution and “Intensity of sweetness” for the aqueous sucrose solution. The score of additive-free taste intensity was set to 3.0, and taste intensity upon addition was evaluated as follows. The results are shown in Table 9. • 1.0: Much weaker • 2.0: Weaker • 3.0: Similar • 4.0: Stronger • 5.0: Much stronger

[2] = Sensory evaluation, intensity of saltiness in aqueous NaCl solution; conditions: additive-free = 3.0
Protocol: as §1, §2, §3, §4

[3] = Sensory evaluation, intensity of sweetness in aqueous sucrose solution; conditions: additive-free = 3.0
Protocol: as §1, §2, §3, §4

[4] = Sensory evaluation whether salt usage can be reduced; conditions: 10 ppm added to 0.5% aqueous NaCl solution; for Scores in sensory evaluation (taste intensity, saltiness): 0.5% NaCl solution = 3.0, scale 1.0-5.0
Protocol: as §1
Evaluation was conducted to find whether salt usage can be reduced by the taste enhancing effects. To a 0.5% aqueous NaCl solution was added 10 ppm n-hexanal or 10 ppm 1-octen-3-ol. Taste intensity was determined in the sensory evaluation where the taste intensity of the 0.5% NaCl solution was set to 3.0. For comparison, sensory evaluation was also performed for a 0.8% and 0.6% concentration of aqueous NaCl solution. The sensory evaluation was evaluated as follows. The results are shown in Table 5. • 1.0: Much weaker • 2.0: Weaker • 3.0: Similar • 4.0: Stronger • 5.0: Much stronger

[5] = Sensory evaluation whether sucrose usage can be reduced; conditions: 10 ppm added to 1.5% aqueous sucrose solution; for Scores in sensory evaluation (taste intensity, sweetness): 1.5% sucrose solution = 3.0, scale 1.0-5.0
Protocol: as §1
Evaluation was conducted to find whether sucrose usage can be reduced by the taste enhancing effects. To a 1.5% aqueous sucrose solution was added 10 ppm n-hexanal or 10 ppm 1-octen-3-ol. Taste intensity was determined in the sensory evaluation where the taste intensity of the 1.5% sucrose solution was set to 3.0. For comparison, sensory evaluation was also performed for a 2.0% and 1.8% concentration of aqueous sucrose solution. The sensory evaluation was evaluated as follows. The results are shown in Table 6. • 1.0: Much weaker • 2.0: Weaker • 3.0: Similar • 4.0: Stronger • 5.0: Much stronger

[6] = Sensory evaluation, intensity of umami in aqueous MSG solution; conditions: additive-free = 3.0, scale 1.0-5.0
[7] = Sensory evaluation, intensity of saltiness in aqueous NaCl solution; conditions: additive-free = 3.0, scale 1.0-5.0
[8] = Sensory evaluation, intensity of sweetness in aqueous sucrose solution; conditions: additive-free = 3.0, scale 1.0-5.0
[9] = Sensory evaluation, intensity of umami in diluted soy sauce; conditions: 10 ppm in soy sauce diluted to 2% in water; aldehyde-free = 3.0; scale 1.0-5.0
Protocol: as §1
(§5) Sensory evaluation was performed for “Intensity of Umani ” and “ Intensity of Saltiness “. The score of aldehyde-free taste intensity was set to 3.0, and taste intensity upon addition was evaluated as follows. The results are shown in Table 7. • 1.0: Much weaker • 2.0: Weaker • 3.0: Similar • 4.0: Stronger • 5.0: Much stronger

[10] = Sensory evaluation, intensity of saltiness in diluted soy sauce; conditions: 10 ppm in soy sauce diluted to 2% in water; aldehyde-free = 3.0; scale 1.0-5.0
Protocol: as §1, §5

[11] = Sensory evaluation, intensity of sweetness in whipped cream; conditions: 100 ppm in whipped cream; aldehyde-free = 3.0; scale 1.0-5.0
Protocol: as §1
Sensory evaluation was performed for “Intensity of sweetness”. The score of aldehyde-free taste intensity was set to 3.0, and taste intensity upon addition was evaluated as follows. The results are shown in Table 8. • 1.0: Much weaker • 2.0: Weaker • 3.0: Similar • 4.0: Stronger • 5.0: Much stronger

[12] = 1 ppm added to 0.2% MSG, scale 1.0-5.0
[13] = 10 ppm added to 0.2% MSG, 1.0 much weaker to 5.0 much stronger, mean of three individuals, nose clip
[14] = 1 ppm added to 0.8% NaCl, scale 1.0-5.0
[15] = 10 ppm added to 0.8% NaCl, 1.0 much weaker to 5.0 much stronger
[16] = 1 ppm added to 2% sucrose, scale 1.0-5.0
[17] = 10 ppm added to 2% sucrose, 1.0 much weaker to 5.0 much stronger

Compound	Intensity of umami, Aqueous MSG solution [1, 12]	Intensity of umami, Aqueous MSG solution [1, 13]	Intensity of saltiness, Aqueous NaCl solution [2, 14]	Intensity of saltiness, Aqueous NaCl solution [2, 15]	Intensity of sweetness, Aqueous sucrose solution [3, 16]	Intensity of sweetness, Aqueous sucrose solution [3, 17]	Concentration of aqueous NaCl solution of similar saltiness intensity [4] [%]	Scores in sensory evaluation (taste intensity, saltiness) [4]	Concentration of aqueous sucrose solution of comparable/similar sweetness intensity [5] [%]	Scores in sensory evaluation (taste intensity, sweetness) [5]	Intensity of umami, Aqueous MSG solution ([6]; 0.01 ppm added to 0.2% MSG)	Intensity of umami, Aqueous MSG solution ([6]; 0.1 ppm added to 0.2% MSG)	Intensity of umami, Aqueous MSG solution ([6]; 100 ppm added to 0.2% MSG)	Intensity of umami, Aqueous MSG solution ([6]; 1000 ppm added to 0.2% MSG)	Intensity of saltiness, Aqueous NaCl solution ([7]; 0.01 ppm added to 0.8% NaCl)	Intensity of saltiness, Aqueous NaCl solution ([7]; 0.1 ppm added to 0.8% NaCl)	Intensity of saltiness, Aqueous NaCl solution ([7]; 100 ppm added to 0.8% NaCl)	Intensity of saltiness, Aqueous NaCl solution ([7]; 1000 ppm added to 0.8% NaCl)	Intensity of sweetness, Aqueous sucrose solution ([8]; 0.01 ppm added to 2% sucrose)	Intensity of sweetness, Aqueous sucrose solution ([8]; 0.1 ppm added to 2% sucrose)	other results
C=CC(O)CCCCC (centres unmarked) [Example 1-octen-3-ol, 1-octen-3-ol]	3.5	3.5	3.5	3.5	3.2	3.5	~0.6	3.5	~1.8	3.5	3.2	3.2	3.8	3.8	3.2	3.5	3.8	3.8	3.2	3.2	Intensity of sweetness, Aqueous sucrose solution ([8]; 100 ppm added to 2% sucrose): 3.5; Intensity of sweetness, Aqueous sucrose solution ([8]; 1000 ppm added to 2% sucrose): 3.5
CCCCCC=O [n-hexanal]	4.3	5.0	4.3	5.0	3.8	4.5	~0.8	4.0	~2.0	4.0	4.0	4.2	5.0	5.0	4.0	4.2	5.0	5.0	3.8	3.8	Intensity of umami [9]: 4.5; Intensity of saltiness [10]: 4.5; Intensity of sweetness [11]: 4.5; Intensity of umami, Aqueous MSG solution ([6]; 0.001 ppm added to 0.2% MSG): 3.5; Intensity of saltiness, Aqueous NaCl solution ([7]; 0.001 ppm added to 0.8% NaCl): 3.5; Intensity of sweetness, Aqueous sucrose solution ([8]; 0.001 ppm added to 2% sucrose): 3.5; Intensity of sweetness, Aqueous sucrose solution ([8]; 100 ppm added to 2% sucrose): 4.5; Intensity of sweetness, Aqueous sucrose solution ([8]; 1000 ppm added to 2% sucrose): 5.0
